“Also recorded” adds a separate entry of the source. Marks after values point to notes of the source that are not given here.
Legend:
[1] = test system: Cisplatin resistant cell line MCP1; experiment: growth (tetrazolium dye-based microtitration) cytotoxicity assay, MCP1; type: cell-based, human; details: for IC50: cisplatin-resistant line, 24 hours drug exposure, 3 day recovery, mean±SEM of triplicate plates; for RF2: rapport of the IC50 between A2780 and MCP1, the lower RF the better
Procedure: (§1) Compounds were tested in a growth assay with a 24 hours drug exposure and a 3 day recovery period. Cell lines used were human ovarian tumour cell line A2780 and 2 Cisplatin resistant derivatives cell lines A27080/cp70 and MCP1. IC50 is the concentration of drug required to reduce the surviving cell number to 50% of that of the control untreated cells. Results are from one experiment and are the mean±SEM of the triplicate plates.
(§2) DIP cytotoxicity was determined by a tetrazolium dye-based microtitration assay. DNA affinity measurements of DIPs were undertaken using Isothermal Titration Calorimetry (ITC).

[2] = test system: Cisplatin resistant cell line A2780/cp70; experiment: growth (tetrazolium dye-based microtitration) cytotoxicity assay, A2780/cp70; type: cell-based, human; details: for IC50: cisplatin-resistant line, 24 hours drug exposure, 3 day recovery, mean±SEM of triplicate plates; for RF1: rapport of the IC50 between A2780 and A2780/cp70, the lower RF the better
Procedure: as §1, §2

[3] = test system: human ovarian tumour cell line A2780; experiment: growth (tetrazolium dye-based microtitration) cytotoxicity assay, A2780; type: cell-based; details: for IC50: cisplatin-sensitive line, 24 hours drug exposure, 3 day recovery, mean±SEM of triplicate plates; for cytotoxicity (in words): overall statement across A2780, A2780/cp70 and MCP1
Procedure: as §1, §2

[4] = test system: Calf DNA; experiment: DNA affinity by Isothermal Titration Calorimetry (ITC), Calf DNA; type: binding; set-up: key: *^1: No measurable binding via ITC
Procedure: as §2

[5] = test system: Salmon DNA; experiment: DNA affinity by Isothermal Titration Calorimetry (ITC), Salmon DNA; type: binding; set-up: key to Ka Salmon DNA: *^1: No measurable binding via ITC
Procedure: as §2

SMILES	IC50 ([1]; Homo sapiens)	RF2 [1]	IC50 ([2]; Homo sapiens, A2780/CP70)	RF1 [2]	IC50 ([3]; Homo sapiens, A2780)	cytotoxicity (in words) [3]	Ka Calf DNA [4]	Ka Salmon DNA [5]	IC50 [1]	IC50 [2]	IC50 [3]	cytotoxicity on cisplatin-sensitive cell line A2780 (in words) [3]	DNA affinity (in words) ([5]; DNA source not given)
CCCN1CC[n+]2c1c1ccccc1c1ccccc12 [AP10-22, 1-Propyl-2,3-dihydro-1H-imidazo[1,2-f]phenanthridin-4-ylium bromide]	2.86 ± 0.32 µM	0.4	5.11 ± 0.19 µM	0.8	6.71 ± 0.86 µM	the least active of all the alkyl DIP derivatives	3.67 ± 1310 M^−1 (10^4)	3.11 ± 2203 M^−1 (10^4)					
[Br-].[Br-].c1ccc2c(c1)c1[n+](c3ccccc23)CCN1CCN1CCN(CCN2CC[n+]3c2c2ccccc2c2ccccc23)CC1 [AP9-5]	3.94 ± 0.32 µM	0.2	5.65 ± 0.2 µM	0.3	18.3 ± 2.8 µM								
[Br-].[Br-].c1ccc2c(c1)c1[n+](c3ccccc23)CCN1CCNCCN1CC[n+]2c1c1ccccc1c1ccccc12 [LS1-81]	25.4 ± 2.9 µM	0.8	15.1 ± 0.9 µM	0.5	32.4 ± 2 µM								
OCCN1CC[n+]2c1c1ccccc1c1ccccc12.[Br-] [AP6-5]	7.8 ± 1.47 µM	0.7	13.7 ± 1.5 µM	1.2	11.7 ± 1.2 µM		1.53 ± 838.9 M^−1 (10^4)	1.84 ± 660 M^−1 (10^4)					
Br.Br.Br.O=C(CN1CC[n+]2c1c1ccccc1c1ccccc12)N1CCCN(C(=O)CN2CC[n+]3c2c2ccccc2c2ccccc23)CCCN(C(=O)CN2CC[n+]3c2c2ccccc2c2ccccc23)CCC1 [AP9-82]	7.59 ± 0.32 µM	0.5	4.57 ± 0.18 µM	0.3	15.6 ± 2.76 µM								
COc1ccc(CN2CC[n+]3c2c2ccccc2c2ccccc23)cc1.[Br-] [AP3-56, 1-(4-Methoxy-benzyl)-2,3-dihydro-1H-imidazo[1,2-f]phenanthridinium bromide]	1.06 ± 0.06 µM	0.7	1.56 ± 0.06 µM	1.0	1.53 ± 0.09 µM								
CCc1ccc(N2CC[n+]3c2c2ccccc2c2ccccc23)cc1.[Br-] [LS2-11]	1.11 ± 0.16 µM	0.7	1.25 ± 0.14 µM	0.8	1.54 ± 0.12 µM								
[Br-].c1ccc2c(c1)c1[n+](c3ccccc23)CCN1C1CC1 [AP3-80]	5.68 ± 0.86 µM	1.1	4.54 ± 0.7 µM	0.9	5.07 ± 1.06 µM								
[Br-].c1ccc2c(c1)c[n+](CCN1CCCCC1)c1ccccc21 [AP4-20]	6.3 ± 0.09 µM	0.6	16.5 ± 0.8 µM	1.7	9.77 ± 1.04 µM								
Br.Br.c1ccc2c(c1)c[n+](CCN1CCN(CC[n+]3cc4ccccc4c4ccccc43)CC1)c1ccccc21 [AP4-48]	11.7 ± 1.51 µM	0.6	16.8 ± 0.54 µM	0.9	18.4 ± 1.23 µM								
COC(=O)CN1CC[n+]2c1c1ccccc1c1ccccc12.[Br-] [LS1-8]	33 ± 1.6 µM	0.7	54.9 ± 3.4 µM	1.1	48.4 ± 8.5 µM	moderate activity							
CC[n+]1c(-c2ccccc2)c2cc(N)ccc2c2ccc(N)cc21.[Br-] [EtBr, ethidium bromide, reference compound]	0.45 ± 0.008 µM	1.5	0.658 ± 0.118 µM	2.2	0.3 ± 0.039 µM		9.31 ± 3353 M^−1 (10^4)	12.9 ± 4533 M^−1 (10^4)					
C[C@H](CO)N1CC[n+]2c1c1ccccc1c1ccccc12.[Br-] [LS1-52]	4.77 ± 0.09 µM	1.7	8.43 ± 0.37 µM	3	2.86 ± 0.37 µM		1.42 ± 785 M^−1 (10^4)	1.73 ± 989.3 M^−1 (10^4)					
[Br-].c1ccc(CN2CC[n+]3c2c2ccccc2c2ccccc23)cc1 [AP9-45]	1.29 ± 0.11 µM	0.6	2.26 ± 0.23 µM	1.0	2.32 ± 0.33 µM								
COc1ccc(N2CC[n+]3c2c2ccccc2c2ccccc23)cc1.[Br-] [AP3-83]	0.5 ± 0.04 µM	0.3	1.1 ± 0.13 µM	0.8	1.45 ± 0.15 µM		3.46 ± 1726 M^−1 (10^4)	3.73 ± 1827 M^−1 (10^4)					
[Br-].[Br-].[Br-].c1ccc2c(c1)c1[n+](c3ccccc23)CCN1[C@H]1C[C@@H](N2CC[n+]3c2c2ccccc2c2ccccc23)C[C@@H](N2CC[n+]3c2c2ccccc2c2ccccc23)C1 [AP3-42]	9.44 ± 0.58 µM	1.2	7.29 ± 0.38 µM	0.9	8.02 ± 1.14 µM								
[Br-].[Br-].[Br-].c1ccc2c(c1)c[n+](CCN1CCCN(CC[n+]3cc4ccccc4c4ccccc43)CCCN(CC[n+]3cc4ccccc4c4ccccc43)CCC1)c1ccccc21 [AP4-55]	1.13 ± 0.12 µM	0.5	1.59 ± 0.15 µM	0.7	2.28 ± 0.23 µM	good cytotoxicity							
COc1ccc2c(c[n+](C)c3c4cc5c(cc4ccc23)OCO5)c1OC.[Cl-] [Chelerythrine, reference compound]	2.29 ± 0.15 µM	0.5	1.79 ± 0.02 µM	0.4	4.63 ± 0.52 µM								
Br.Br.Br.Br.c1ccc2c(c1)c1[n+](c3ccccc23)CCN1CC[N+]12CC[N+](CCN3CC[n+]4c3c3ccccc3c3ccccc34)(CC1)CC2 [AP11-36]	3.07 ± 0.52 µM	1.3	3.4 ± 0.23 µM	1.5	2.34 ± 0.25 µM								
COc1ccc(CN2CC[n+]3c2c2ccccc2c2cc(Br)ccc23)cc1.[Br-] [LS1-72]	0.997 ± 0.034 µM	1.2	1.67 ± 0.18 µM	2	0.823 ± 0.219 µM								
N.N.[Cl][Pt][Cl] [Cisplatin, reference compound]		1.7		5.8					0.43 ± 0.06 µM	1.46 ± 0.04 µM	0.25 ± 0.02 µM		
COC(=O)[C@H](Cc1ccccc1)N1CC[n+]2c1c1ccccc1c1ccccc12.[Br-] [AP8-56]	20 ± 1.2 µM		21.6 ± 1.8 µM		35.8 ± 4.2 µM	moderate activity	*^1	*^1				moderate cytotoxicity	does not have any measurable binding property
[Br-].c1ccc(C(CCN2CC[n+]3c2c2ccccc2c2ccccc23)c2ccccc2)cc1 [LS2-10]	2.03 ± 0.31 µM	1	1.73 ± 0.12 µM	0.8	2.06 ± 0.34 µM								
O=C(CN1CC[n+]2c1c1ccccc1c1ccccc12)N1CCN(C(=O)CN2CC[n+]3c2c2ccccc2c2ccccc23)CC1.[Br-].[Br-] [AP8-66]	6.84 ± 0.89 µM	0.6	15.6 ± 2.1 µM	1.3	11.7 ± 1.1 µM								
COC(=O)[C@@H](Cc1ccccc1)N1CC[n+]2c1c1ccccc1c1ccccc12.[Br-] [LS2-6]	34.2 ± 4.3 µM	1.1	26.4 ± 3.3 µM	0.9	31.2 ± 4.2 µM	moderate activity; also recorded: moderate cytotoxicity in the three lines						moderate cytotoxicity	

— patent US7947703B2, “Phenanthridinium derivatives as DNA binding agents” (University Court of the University of Glasgow, priority 2003, dated 2011)
